Test results taken from the METLIN SMRT retention time set (Domingo-Almenara et al. 2019).

Test: gradient 5% acetonitrile 3 min, to 50% in 2 min, to 85% in 15 min, held 3 min, 100 µL/min
Settings: column: Zorbax Extend-C18 2.1 x 50 mm; eluents: water / acetonitrile, 0.1% formic acid
Method in brief: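 The mobile phases were water and acetonitrile, each with 0.1% formic acid, pumped at 100 μL/min through a Zorbax Extend-C18 column (2.1 × 50 mm, 1.8 μm). Pure standards were injected as mixtures of ~100 molecules and detected by a quadrupole time-of-flight mass spectrometer in positive and negative ionization mode. Retention time came from computationally picked adduct peaks, each inspected by hand.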

RP-LC retention time | SMILES
561 s | Cc1ccnc(N2CCCC(C(=O)NCc3ccc(N(C)C)cc3)C2)n1 (stereo not given)
1150 s | CCc1ccccc1NC(=O)c1cc(CC)n2nccc2n1
863 s | Cc1ccc(C(=O)N(CCCN)[C@@H](c2oc3cc(Cl)ccc3c(=O)c2Cc2ccccc2)C(C)C)cc1
573 s | CC(C)(C)NC(=O)N1CC(N(Cc2ccncc2)S(C)(=O)=O)C1
578 s | CCCn1cnc2cc(CNC(=O)c3cnccn3)ccc21
922 s | COCc1c(C(=O)N2CCCC2Cc2noc(C3CCCC3)n2)noc1C (stereo not given)
617 s | COc1ccc(CCC(=O)N2CCN(c3nccn3-c3cccc(Cl)c3)CC2)cc1
689 s | O=C(c1ccncc1)N1CCC(n2c(-c3ccco3)nc3cccnc32)C1 (stereo not given)
1230 s | Cc1ccc(C)c(-c2coc(-c3ccc(NC(=O)Cc4cccs4)cc3)n2)c1
872 s | O=C1N=C(N2CCOCC2)S/C1=C/c1ccc(-c2ccccc2Br)o1
726 s | CN1C(=O)c2cccnc2Sc2cc(C(=O)NC3CCCC3)ccc21
901 s | COc1ccc2nc3oc(C(=O)NCCc4ccsc4)cc3cc2c1
968 s | Cc1noc(-c2ccnc(-n3ncc(C(=O)NC4CCCCCC4)c3C)c2)n1
586 s | CCN1CCN(C(=O)C2CCN(c3nc4ccc(-c5cccs5)nc4s3)CC2)CC1
674 s | Cc1cccn2cc(-c3ccc(NS(=O)(=O)c4ccc(Br)cc4)cc3)nc12
935 s | Cc1cc(C)cc(OCCNS(=O)(=O)c2cccs2)c1
1240 s | COc1ccc(-c2noc(N3CCC(Cc4ccccc4)CC3)n2)cc1OC
946 s | CC(=O)Nc1cccc2c(C(=O)N3CCN(c4ccccc4Cl)CC3)ccnc12
794 s | CCN1CCCn2cc(S(=O)(=O)Nc3cc(Cl)ccc3OC)cc2C1=O
822 s | CC(C)S(=O)(=O)c1cc2c(cc1NC(=O)c1ccccc1Br)n(C)c(=O)n2C
589 s | CCn1nc(C)c(-c2cc(C(=O)O)[nH]n2)c1C
1280 s | CCCOc1nc2ccccc2nc1N1CCCC(C(=O)Nc2ccc(OC)cc2OC)C1 (stereo not given)

RP-LC retention time | SMILES
994 s | Clc1ccccc1-c1nc(-c2ccnc(N3CCOCC3)c2)no1
1030 s | CCOc1ccccc1NC(=O)CSc1ncnc2c1nnn2-c1ccc(OC)cc1
562 s | CC(C)S(=O)(=O)N1CC(N(C)Cc2cccnc2)C1
640 s | O=C(NC1CCCC1)c1ccc2ncnc(N3CCCCC3)c2c1
609 s | Cc1cc2n(n1)CCCN2C(=O)CCC(=O)NCc1ccc(N(C)C)cc1
808 s | Cc1nn(C)cc1CN(C)C(=O)c1cc2c(=O)n(CC(C)C)c3ccccc3n2n1
994 s | CCCn1c(=O)c(N2CCN(C(=O)C3CCC3)CC2)nc2ccccc21
972 s | CCCc1ccc(S(=O)(=O)NC2CCN(c3ccc(=O)n(CC4CC4)n3)CC2)cc1
924 s | COc1ccc(-n2c(=O)n(C)c(=O)c3cc(C(=O)NC4CCCCCC4)cnc32)cc1
1090 s | COc1ccc(-c2cc(=S)ss2)cc1
680 s | CC(=O)N1CCN(C(=O)CN2C(=O)C3CCCCN3c3ccc(S(=O)(=O)N(C)C)cc32)CC1 (stereo not given)
623 s | O=S(=O)(Nc1ccc(N2CCOCC2)cc1)C1CC1
876 s | COC(=O)c1ccccc1NC(=O)N1CCN(c2ccc(=O)n(-c3ccccc3)n2)CC1
715 s | C[C@H]1CN(C(=O)NCc2ccccc2)C[C@@H]1c1nc(-c2ccncc2)no1
570 s | CN1CCC(N2CCN(S(=O)(=O)c3ccccc3Cl)CC2)C1=O (stereo not given)
591 s | CCC(=O)NCc1nc2c(n1C)CN(S(=O)(=O)c1cccc(C(F)(F)F)c1)CC2
748 s | Cn1cnc(S(=O)(=O)N2CCC(c3noc(-c4ccccc4)n3)C2)c1 (stereo not given)
752 s | O=C(Nc1nnc(C2CC(=O)N(c3ccc(Cl)cc3)C2)o1)c1ccccc1 (stereo not given)
815 s | CCn1cc(C)c(C(=O)O)c1CC(=O)N1CCc2ccccc21
875 s | CC(C)c1nc(NCc2ccc(F)cc2F)ncc1C(=O)O
1110 s | O=c1c2sccc2n(Cc2nc(-c3ccccc3Cl)no2)c(=O)n1Cc1ccc(F)cc1

The remaining lines, values behind:

SMILES | RP-LC retention time
O=C(NCc1ccc(F)cc1F)C1CCN(C(=O)c2ncn3c2COC(c2ccc(F)cc2)C3)CC1 (stereo not given) | 776 s
COc1ccccc1CNC(=O)Cc1csc(NC(=O)Nc2cccc(Cl)c2)n1 | 837 s
CCc1cc(C2CCCN2C(=O)Nc2ccc(OC)c(OC)c2)on1 (stereo not given) | 724 s
Cc1nn(-c2ccc(N3CCCC3)nn2)c(C)c1CCC(=O)N1CCCC1 | 599 s
O=C(NCc1cccs1)c1ccc2ncnc(N3CCCC3)c2c1 | 617 s
CCOc1ccccc1CNC(=O)C1CCN(S(=O)(=O)c2ccc3c(c2)sc(=O)n3C)CC1 | 878 s
Cc1nc(OC(C)C)cc(N2CCN(C(=O)CCc3ccccc3)CC2)n1 | 617 s
CC(C)Cn1ccc2c(cc(C(=O)NCCCN3CCOCC3)n2C)c1=O | 594 s
Cc1ccc(-c2noc(C3CCCN3S(=O)(=O)c3ccc(C)c(C)c3)n2)cc1 (stereo not given) | 1260 s
CCc1nc2cc(N3CCCC(C(=O)NCC4CCCO4)C3)cnc2nc1CC (stereo not given) | 694 s
O=C(NCc1ccc(F)cc1)C1CCCN(S(=O)(=O)c2c[nH]c(C(=O)N3CCCCCC3)c2)C1 (stereo not given) | 838 s
CCN(CC)c1ccc(-c2noc(CN3CCN(c4ccccn4)CC3)n2)cn1 | 575 s
c1cc(N2CCSCC2)ncc1-c1noc(CN2CCOCC2)n1 | 702 s
COc1ccccc1NCC(O)Cn1ccc2ccccc21 (stereo not given) | 871 s
Cc1ccc(NS(=O)(=O)c2ccc3c(c2)CCCC(=O)N3)cc1C | 756 s
CCc1ccc(NC(=O)N2CCC(CN3CCCC(C)C3)CC2)cc1 (stereo not given) | 662 s
Cc1ccc(N2C(=O)CN(S(C)(=O)=O)CC2(C)C(=O)NCc2ccc(F)cc2)cc1C (stereo not given) | 818 s
CCOc1ccccc1-n1ccn(Cc2nc(-c3ccccc3)no2)c(=O)c1=O | 848 s
CC(C)NC(=O)C1(C)CC(c2ccccc2)=NO1 (stereo not given) | 799 s
Cc1oc(-c2[nH]ncc2C(=O)N2CCCC2)cc1S(=O)(=O)NCc1ccc(F)cc1 | 709 s
Cc1cccc(-c2noc(CN3N=NC4C(=O)N(c5ccccc5)C(=O)C43)n2)c1 (stereo not given) | 989 s
COc1nc2ccccc2nc1N1CCCC(C(=O)NCc2ccccc2)C1 (stereo not given) | 1040 s
Cc1sc2ccn(Cc3ccc(F)cc3)c(=O)c2c1C(=O)NC(C)C | 814 s
COC(=O)c1ccccc1Nc1c(-c2ccccn2)nc2cnccn12 | 816 s

SMILES | RP-LC retention time
CCOC(=O)CNC(=O)N1CCN(c2ccc(=O)n(-c3ccc(C)cc3)n2)CC1 | 683 s
Cc1c(Cl)cccc1NC(=O)C(C)n1cnc2nc3c(cc2c1=O)CCCC3 (stereo not given) | 805 s
CCc1nc2cc(N3CCCC(C(=O)NCCOC)C3)cnc2nc1CC (stereo not given) | 662 s
CC(C)(C)C(=O)N1CCCC(c2nc(CCNC(=O)C3CC3)cs2)C1 (stereo not given) | 710 s
CC1=NS(=O)(=O)N(C)C=C1C(=O)OCc1ccccc1 | 882 s
CNC(=O)C1CCCN(c2nc3ncn(CC(=O)Nc4ccccc4C)c(=O)c3s2)C1 (stereo not given) | 628 s
CCOC(=O)C1CCN(C(=O)Cn2c(N3CCOCC3)nc(C)cc2=O)CC1 | 620 s
CCN1CCCn2nc(C3CCN(C(=O)COc4cccc(Cl)c4)CC3)cc2C1=O | 751 s
Cc1ccc(CNS(=O)(=O)c2c(C)nc3sc(C)nn23)o1 | 710 s
CCn1cc(CCNC(=O)Nc2ccsc2C(=O)OC)c2cccnc21 | 762 s
Cc1cc2c(c(=O)n(-c3ccccc3)c(=O)n2CC(=O)Nc2cccc(C#N)c2)n1C | 784 s
Cc1cccc(C(=O)NCC2CCCN(S(=O)(=O)c3cc(C)c(C)cc3C)C2)c1 (stereo not given) | 1060 s
CCOc1ccccc1CNC(=O)C1CCCN(c2nccnc2Sc2ccc(C)cc2)C1 (stereo not given) | 1190 s
CCN1C(=O)c2cccnc2Sc2cc(CNC(=O)c3cc(OC)cc(OC)c3)ccc21 | 777 s
COc1ccc(-c2noc(-c3cccn(CC(=O)Nc4ccc(C#N)cc4)c3=O)n2)cc1OC | 779 s
COCC(=O)N1CCC(N2C[C@H](O)C[C@H]2C(=O)NC2CCCCC2)CC1 | 573 s
COCCNc1c(-c2ccccc2)nc2sc(C(=O)NC(C)C)c(C)n12 | 749 s
COc1ccccc1-c1noc(-c2nnn3c2COC(c2ccc(F)cc2)C3)n1 (stereo not given) | 1040 s
CCC(=O)N1CCc2cc(N3CC(C(=O)Nc4ccccc4)CC3=O)ccc21 (stereo not given) | 720 s
Cc1ccc(Cl)cc1NC(=O)N1CCc2nc(-c3ccc(F)cc3)ncc2C1 | 1030 s
COc1ccc(OC)c(C2CCN(C(=O)c3nc(-c4oc5c(C)cccc5c4C)no3)C2)c1 (stereo not given) | 1310 s
COc1ccc(-n2c(=O)n(C)c(=O)c3cc(C(=O)Nc4cc(F)ccc4C)cnc32)cc1 | 893 s
Cc1ccc(-c2noc(Cn3ccn(-c4ccccc4C)c(=O)c3=O)n2)cc1 | 680 s
